Read-outs that look alike come from different tables or passages of the source.
Tests used:
[1] = Stability of stock solutions; format: physicochemical; conditions: DMSO stock solution, stock solution 1.00 mg/mL, n = 6, read-out: Remaining (%, Mean ± SD)
Method: Stock solutions of ISO and trans-stilbene (internal standard, IS) were prepared in DMSO at a final concentration of 1 mg/mL. These solutions were stored at −20 °C and protected from light. The calibration standard and quality control (QC) samples were prepared by serial dilution of the ISO stock solution with pooled blank murine plasma or respective tissue homogenate.
(§1) The stability of ISO was evaluated under various storage conditions. Stock solution stability was assessed after storage at room temperature (25 °C) and –20 °C. The stability of ISO in plasma was examined under the following conditions: short-term storage (25 °C for 24 h), long-term storage (–80 °C for 52 days), three freeze–thaw cycles, and post-preparative stability (samples kept in an autosampler at 4 °C for more than 24 h). As it is difficult to evaluate ISO stability directly in tissues, only the short-term stability in tissue homogenates was assessed (6 h on ice). Similarly, post-preparative stability in processed tissue samples was assessed using liver homogenate as a representative, due to the complexity of the hepatic matrix. Stability was considered acceptable if 85–115% of the initial ISO concentration remained.

[2] = Stability of ISO in plasma samples under various storage conditions; format: in vitro ADME; conditions: mouse plasma, read-out: Remaining (%, Mean ± SD)
Text: (§2) In bioanalysis, analyte stability in biological matrices is crucial for ensuring accurate and reliable quantification. Instability can result in degradation or transformation during sample collection, storage, or processing, potentially compromising data integrity and study outcomes. Therefore, the stability of ISO in plasma was thoroughly evaluated under various storage conditions (Table 5). Assessing ISO stability in intact tissues is challenging, as replicating the native tissue environment is difficult. Accordingly, only short-term stability (6 h on ice) was assessed in tissue homogenates (Table 6). For post-preparative stability, hepatic homogenate—the most complex matrix—was selected as a representative.
For the cleanup of plasma samples, three volumes of acetonitrile (containing IS at 400 ng/mL) were added to one volume of murine plasma to precipitate proteins. After vortexing for 20 s, the samples were centrifuged at 1503× g for 10 min at 4 °C. The supernatant was carefully transferred to a glass insert preloaded in an autosampler vial. During each HPLC analysis, 10 μL of supernatant was injected into the HPLC system. The minimum plasma volume required per analysis was 25 μL.
as §1

[3] = Stability of ISO in tissue homogenates; format: in vitro ADME; conditions: mouse; for remaining at 6 h, 45 ng/mL / remaining at 6 h, 1600 ng/mL: read-out: Stability Remaining (%, Mean ± SD) Short-Term Stability (6 h on Ice)
Text: as §2
For tissue samples, namely brain, fat, heart, small intestine, large intestine, kidney, liver, lung, muscle, spleen, and stomach, approximately 35 mg of each tissue was weighed and finely minced with scissors. The samples were homogenized in a 0.2% ascorbic acid solution (freshly prepared daily) in 50% methanol (v/v) at a ratio of 1:5 (w/v) for up to three cycles using a high-throughput tissue homogenizer (Wonbio-L, Wonbio, Shanghai, China) operating at 60 Hz for 60 s per cycle. Subsequently, three volumes of acetonitrile (containing IS at 400 ng/mL) were added to one volume of tissue homogenate. Following vigorous vortexing, the samples were centrifuged at 1902× g for 10 min at 15 °C. The clear supernatant was carefully transferred into an HPLC vial.
as §1

[4] = cited from earlier work
[5] = mice, oral; cited from earlier work
[6] = design: method as in PMID 39456808; conditions: Sprague Dawley rats, two weeks daily oral 100 µmol/kg/day; cited from earlier work
[7] = system: primary airway epithelial cells isolated from patients with chronic obstructive pulmonary disease (COPD); design: method as in PMID 28369685; conditions: RES as comparator; cited from earlier work
[8] = enzymatic-hydrolysis approach; cited from earlier work

For `COc1cc(/C=C/c2cc(O)cc(O)c2)ccc1O` [ISO, trans-3,5,4′-trihydroxy-3′-methoxystilbene], which remaining at 24 h, 1 mg/mL ([1]; stored at room temperature for 24 h) is on record?
Its remaining at 24 h, 1 mg/mL is 94.6 ± 0.7%.

And the remaining at 480 h, 1 mg/mL ([1]; stored at −20 °C for 20 days)?
The remaining at 480 h, 1 mg/mL was 105 ± 1.4%.

What about the remaining at 45 ng/mL ([2]; 45.0 ng/mL, after three freeze and thaw cycles) of the same molecule?
The remaining at 45 ng/mL was 101 ± 4.4%.

And the remaining at 1248 h, 45 ng/mL ([2]; 45.0 ng/mL, long term-stability (−80 °C for 52 days))?
Its remaining at 1248 h, 45 ng/mL is 102 ± 1.9%.

What about the remaining at 24 h, 45 ng/mL ([2]; 45.0 ng/mL, post-preparative stability (autosampler at 4 °C for at least 24 h)) of the same molecule?
Its remaining at 24 h, 45 ng/mL is 102 ± 2.7%.

What about the remaining at 24 h, 45 ng/mL ([2]; 45.0 ng/mL, short-term stability (24 h at room temperature)) of the same molecule?
Its remaining at 24 h, 45 ng/mL is 102 ± 3.7%.

What about the remaining at 1600 ng/mL ([2]; 1600 ng/mL, after three freeze and thaw cycles) of the same molecule?
Its remaining at 1600 ng/mL is 105 ± 1.1%.

And the remaining at 1248 h, 1600 ng/mL ([2]; 1600 ng/mL, long term-stability (−80 °C for 52 days))?
The remaining at 1248 h, 1600 ng/mL was 106 ± 2.1%.

What about the remaining at 24 h, 1600 ng/mL ([2]; 1600 ng/mL, post-preparative stability (autosampler at 4 °C for at least 24 h)) of the same molecule?
Its remaining at 24 h, 1600 ng/mL is 101.7 ± 1%.

And the remaining at 24 h, 1600 ng/mL ([2]; 1600 ng/mL, short-term stability (24 h at room temperature))?
The remaining at 24 h, 1600 ng/mL was 101.7 ± 0.9%.

And the remaining at 6 h, 45 ng/mL ([3]; brain homogenate, 45.0 ng/mL)?
The remaining at 6 h, 45 ng/mL was 101 ± 2.1%.

What about the remaining at 6 h, 1600 ng/mL ([3]; brain homogenate, 1600 ng/mL) of the same molecule?
The remaining at 6 h, 1600 ng/mL was 95.9 ± 1.7%.

And the remaining at 6 h, 45 ng/mL ([3]; fat homogenate, 45.0 ng/mL)?
The remaining at 6 h, 45 ng/mL was 101 ± 4.4%.

And the remaining at 6 h, 1600 ng/mL ([3]; fat homogenate, 1600 ng/mL)?
Its remaining at 6 h, 1600 ng/mL is 96.8 ± 2.5%.

And the remaining at 6 h, 45 ng/mL ([3]; heart homogenate, 45.0 ng/mL)?
Its remaining at 6 h, 45 ng/mL is 93.8 ± 3.4%.

What about the remaining at 6 h, 1600 ng/mL ([3]; heart homogenate, 1600 ng/mL) of the same molecule?
The remaining at 6 h, 1600 ng/mL was 106 ± 2%.

And the remaining at 6 h, 45 ng/mL ([3]; kidney homogenate, 45.0 ng/mL)?
The remaining at 6 h, 45 ng/mL was 96.8 ± 2.6%.

What about the remaining at 6 h, 1600 ng/mL ([3]; kidney homogenate, 1600 ng/mL) of the same molecule?
The remaining at 6 h, 1600 ng/mL was 97.4 ± 2.8%.

What about the remaining at 6 h, 45 ng/mL ([3]; large intestine homogenate, 45.0 ng/mL) of the same molecule?
Its remaining at 6 h, 45 ng/mL is 92.6 ± 2.9%.

What about the remaining at 6 h, 1600 ng/mL ([3]; large intestine homogenate, 1600 ng/mL) of the same molecule?
Its remaining at 6 h, 1600 ng/mL is 90.3 ± 3.6%.

And the remaining at 24 h, 45 ng/mL ([3]; liver homogenate, 45.0 ng/mL, read-out: Stability Remaining (%, Mean ± SD) Post-Preparative Stability (More Than 24 h at 4 °C))?
Its remaining at 24 h, 45 ng/mL is 105 ± 2.2%.

What about the remaining at 6 h, 45 ng/mL ([3]; liver homogenate, 45.0 ng/mL) of the same molecule?
Its remaining at 6 h, 45 ng/mL is 103 ± 2.1%.

And the remaining at 24 h, 1600 ng/mL ([3]; liver homogenate, 1600 ng/mL, read-out: Stability Remaining (%, Mean ± SD) Post-Preparative Stability (More Than 24 h at 4 °C))?
The remaining at 24 h, 1600 ng/mL was 94.9 ± 1%.

And the remaining at 6 h, 1600 ng/mL ([3]; liver homogenate, 1600 ng/mL)?
Its remaining at 6 h, 1600 ng/mL is 97.8 ± 1.2%.

What about the remaining at 6 h, 45 ng/mL ([3]; lung homogenate, 45.0 ng/mL) of the same molecule?
The remaining at 6 h, 45 ng/mL was 97.3 ± 4%.

And the remaining at 6 h, 1600 ng/mL ([3]; lung homogenate, 1600 ng/mL)?
Its remaining at 6 h, 1600 ng/mL is 101 ± 1.7%.

And the remaining at 6 h, 45 ng/mL ([3]; muscle homogenate, 45.0 ng/mL)?
The remaining at 6 h, 45 ng/mL was 102 ± 5.5%.

What about the remaining at 6 h, 1600 ng/mL ([3]; muscle homogenate, 1600 ng/mL) of the same molecule?
Its remaining at 6 h, 1600 ng/mL is 95 ± 2.5%.

What about the remaining at 6 h, 45 ng/mL ([3]; small intestine homogenate, 45.0 ng/mL) of the same molecule?
The remaining at 6 h, 45 ng/mL was 91.8 ± 4.8%.

What about the remaining at 6 h, 1600 ng/mL ([3]; small intestine homogenate, 1600 ng/mL) of the same molecule?
The remaining at 6 h, 1600 ng/mL was 92.9 ± 3.8%.

And the remaining at 6 h, 45 ng/mL ([3]; spleen homogenate, 45.0 ng/mL)?
Its remaining at 6 h, 45 ng/mL is 92.7 ± 6%.

And the remaining at 6 h, 1600 ng/mL ([3]; spleen homogenate, 1600 ng/mL)?
The remaining at 6 h, 1600 ng/mL was 94.3 ± 4.3%.

What about the remaining at 6 h, 45 ng/mL ([3]; stomach homogenate, 45.0 ng/mL) of the same molecule?
Its remaining at 6 h, 45 ng/mL is 95 ± 2.9%.

What about the remaining at 6 h, 1600 ng/mL ([3]; stomach homogenate, 1600 ng/mL) of the same molecule?
Its remaining at 6 h, 1600 ng/mL is 97.2 ± 2.2%.

What about the “Change in oral bioavailability after one-week repeated dosing” value ([4]; one-week repeated dosing) of the same molecule?
The value was “did not result in any significant changes”.

What about the Absolute oral bioavailability ([4]; rats, oral) of the same molecule?
The Absolute oral bioavailability was 20–30%.

And the “Time of peak plasma concentrations post-dosing” value ([4]; rats, oral)?
Its value is at most 15 min.

And the “Time of peak plasma concentrations post-dosing” value [5]?
Its value is at most 15 min.

And the Blood cholesterol levels [6]?
Its Blood cholesterol levels is “healthier blood cholesterol levels”.

What about the Body weight gain [6] of the same molecule?
Its Body weight gain is “less body weight gain”.

What about the Toxicity [6] of the same molecule?
Its Toxicity is “no significant toxicity was observed”.

What about the “Anti-COPD activity compared with RES” value [7] of the same molecule?
The value was “stronger anti-COPD activity than RES”.

What about the Glucuronidation [8] of the same molecule?
Its Glucuronidation is “extensive glucuronidation”.

What about the Sulfation [8] of the same molecule?
Its Sulfation is “not detected”.
